We go through one compound from article PMC8414988 (Pediatric blood & cancer, 2021).

One may read the AUC(0-t) as exposure summed from dosing to a finite time, without extrapolation to infinity. In general, Cmax refers to the peak of the concentration-time curve. In general, half-life refers to how long it takes for the measured level to halve. A higher half-life goes with slow decline.

For data set [1] the following is noted: daily, 21 days followed by 7-day rest, adults; cited from earlier work.
The conditions of data set [2]: cited from earlier work.
The conditions of data set [3]: human, in vivo, 28 days.
Data set [4] in a line: Plasma pharmacokinetics, non-compartmental analysis. As to conditions: for AUC(0-t) / Cmax / half-life: human, plasma, po. The class given is in vivo, human.
A short description of data set [5]: Exposure-toxicity associations. The class given is in vivo, human. Particulars: course 1.
The conditions of data set [6]: cited from earlier work. The source holds these as a separate data set.

`CC(=O)c1c(C)c2cnc(Nc3ccc(N4CCNCC4)cn3)nc2n(C2CCCC2)c1=O` [palbociclib]: the “adult MTD” value in data set [1] is reported as 125 mg. The solubility result in data set [2] was “pH-dependent solubility”. Moreover, in data set [3], the “Dose limiting toxicities observed” value was “grade 4 neutropenia and grade 3 thrombocytopenia and dehydration”. The “Cmax (mean ± SD)” value in data set [4] (50 mg/m^2 oral, Day 1 (single dose), N=7) was 69.3 ± 43.7 ng/mL. The “AUC0-Tlast (mean ± SD)” value in data set [4] (75 mg/m^2 oral, Day 21 (repeated doses), N=17) was 2219 ± 1086 ng·h/mL. Also, the AUC(0-t) is 1160 ng·h/mL in data set [4] (50 mg/m2, AUC0-Tlast (median (range)), 50 mg/m^2 oral, Day 1 (single dose), N=7); 1230 ng·h/mL in data set [4] (50 mg/m2, AUC0-Tlast (median (range)), 50 mg/m^2 oral, Day 21 (repeated doses), N=6); 1830 ng·h/mL in data set [4] (75 mg/m2, AUC0-Tlast (median (range)), 75 mg/m^2 oral, Day 1 (single dose), N=21); 2270 ng·h/mL in data set [4] (75 mg/m2, AUC0-Tlast (median (range)), 75 mg/m^2 oral, Day 21 (repeated doses), N=17); 2410 ng·h/mL in data set [4] (95 mg/m2, AUC0-Tlast (median (range)), 95 mg/m^2 oral, Day 1 (single dose), N=6); 2190 ng·h/mL in data set [4] (95 mg/m2, AUC0-Tlast (median (range)), 95 mg/m^2 oral, Day 21 (repeated doses), N=2). Also, the maximum concentration (Cmax) in data set [4] (50 mg/m2, Cmax (median (range)), 50 mg/m^2 oral, Day 1 (single dose), N=7) is 54.9 ng/mL; in data set [4] (50 mg/m2, Cmax (median (range)), 50 mg/m^2 oral, Day 21 (repeated doses), N=6), 77.2 ng/mL; in data set [4] (75 mg/m2, Cmax (median (range)), 75 mg/m^2 oral, Day 1 (single dose), N=21) it was 94 ng/mL. Besides, the half-life in data set [4] (50 mg/m2, Half-life (median (range)), 50 mg/m^2 oral, Day 1 (single dose), N=7) was 13 h; in data set [4] (50 mg/m2, Half-life (median (range)), 50 mg/m^2 oral, Day 21 (repeated doses), N=6), 17.4 h; in data set [4] (75 mg/m2, Half-life (median (range)), 75 mg/m^2 oral, Day 1 (single dose), N=21), 13.3 h; in data set [4] (75 mg/m2, Half-life (median (range)), 75 mg/m^2 oral, Day 21 (repeated doses), N=17), 14.4 h; in data set [4] (95 mg/m2, Half-life (median (range)), 95 mg/m^2 oral, Day 1 (single dose), N=6) it was 14.6 h; in data set [4] (95 mg/m2, Half-life (median (range)), 95 mg/m^2 oral, Day 21 (repeated doses), N=2) it was 11.3 h. For the same compound, in data set [4] (within 50 and 95 mg/m^2, single and repeated doses), the “dose dependence of mean Cmax and AUC0-Tlast” value is reported as “increased in proportional manner”. In addition, the “association of pharmacokinetic variables with thrombocytopenia or lymphopenia” value in data set [5] is given as “No association was found”. Moreover, the permeability result in data set [6] is reported as “high permeability”.
